# Measurements as given in US12559718B2, “Diagnostic methods for t cell therapy” (Kite Pharma, Inc., priority 2015, dated 2026).
# Assay: Phase 1/2 trial of anti-CD19 CAR+ T cells: adverse events and dose-limiting toxicity
# Assay type: in vivo, human
# Details: 1 subject, onset at day 110 post anti-CD19 CAR+ T cell infusion
# Description: Subjects who signed informed consent and met study eligibility were enrolled into the study and underwent leukapheresis to obtain PBMCs for the production of anti-CD19 CAR+ T cells. […] Some subjects were then treated with interleukin-2 (Group 1 only), 3 hours after the anti-CD19 CAR+ T cell infusion. Retreatment of a second dose of anti-CD19 CAR+ T cells was allowed if there was a response of partial response (PR) or complete response (CR) after the first infusion and then subsequent disease progression.
# Three groups of subjects were enrolled. […] These subjects also received high dose interleukin-2 (IL-2) at 720,000 IU/kg (every 8 hours until 15 doses or toxicity precluded additional doses) after the anti-CD19 CAR+ T cell administration to stimulate their proliferation.
# Group 3 includes 11 subjects, who have received a reduced conditioning regimen of cyclophosphamide at 300 mg/m^2 and fludarabine at 30 mg/m^2, both given for 3 concurrent days with no IL-2.
# Overall safety summaries include all 32 treated subjects.
structure (smiles),measurement,value
Nc1nc(F)nc2c1ncn2[C@@H]1O[C@H](CO)[C@@H](O)[C@@H]1O [fludarabine],Neurologic adverse event considered by the investigator related to fludarabine,grade 4 myelitis
